For one data set, the system named is DOPA-oxydase. Nature of the data set: Inhibition in the DOPA-oxydase + DOPA system. Type of data set: biochemical, champignons. The following applies: concentrations inférieures a 10-^4M; figure 1. An excerpt:
D'autres essais ont été entrepris pour mesurer l'inhibition exercée par la DF-5HTP dans le système DOPA-oxydase + DOPA, par comparaison avec la désoxyfructosérotonine (DFS). Pour ce qui concerne l'inhibition de la DOPA-oxydase, on pourra se reporter a la methode de N.H. Horowitz, M. Fling et et C. Horn "Tyrosinase", dans Methods in Enzymology Vol. XVII- A, p. 615, Editors: Tabor and Tabor, Ac. Press, 1970.
L'effet de la désoxyfructo-sérotonine (DFS) sur les Mycobacteries de la lèpre est attribue a son effet inhibiteur sur la DOPA-oxydase de M. leprae. Une DOPA-oxydase semblable, isolée de champignons, est commercialisée (SIGMA) et a servi comme modèle afin de comparer l'effet inhibiteur de la DFS et du désoxyfructo-5-hydroxytryptophane sur cette DOPA-oxydase.
La figure 1 est un graphique dans lequel on a porté en abscisses la concentration de I'agent de traitement utilise et en ordonnées les valeurs de la coloration du milieu mesurée a 540 mµ, celles-ci étant en effet representatives de la concentration en substance capable de colorer le milieu. En presence d'un inhibiteur, la formation de la coloration est empêchée. Ainsi, plus les valeurs portées en ordonnées sont faibles, meilleure est I'inhibition procurée par le compose essayé.

A short description of data set [1]: In vivo metabolism of radioactive compounds, hamster plasma. Conditions: après 24 heures, figure 2. An excerpt:
La mesure de la radioactivite des diverses fractions isolées du sang des hamsters traités permet de caractériser les metabolites, lesquels sont ainsi isolés et identifies par électrophorèse. Les metabolites acides HIAA et IAA sont séparés ensemble.
On a porté le temps en abscisses (exprimé en heures) et en ordonnées le pourcentage du compose caractérisé dans le plasma.

With `O=C(O)C(Cc1c[nH]c2ccc(O)cc12)NCC1(O)OCC(O)C(O)C1O` (centres unmarked) [DF-5HTP, N-1-desoxyfructo-5-hydroxytryptophane], the “activité inhibitrice sur la DOPA-oxydase (coloration du milieu mesurée a 540 mµ)” value with DOPA-oxydase is listed as “comparable a celle de la DFS”. Also, the “taux du compose non transformé dans le plasma” value in data set [1] was “considerable”.

These data come from EP0151577B1 (priority 1983, dated 1984).
